US4268630A, “Microbiological production of ketones from C3 -C6 alkanes” (priority 1979, dated 1981)

Columns and labels:
[1] = tested on: Methylobacter capsulatus Y (NRRL B-11,201); assay: Oxidation of sec-alcohols to ketones by resting cell suspension; assay type: cell-based
Protocol: (§1) The pH of the nutrient medium was adjusted to 7.0 by the addition of acid or base and 50 ml. samples of the nutrient medium were charged into a plurality of 300 ml. shaker flasks. The shaker flasks were inoculated with an inoculating loop of cells from an agar plate containing homogeneous colonies of the microorganisms on the plate (the purity of the isolates was confirmed by microscopic examination). The isolates had been maintained on methanol (0.4% V/V) agar plates or on agar plates under an atmosphere of methane and air having a 1:1 V/V gas ratio which had been transferred every two weeks. For growth on methanol, the medium was supplemented with 0.4% methanol. For growth on methane, the gaseous phase of the inoculated flasks was replaced with a gas mixture comprised on methane and air having a ratio of 1:1 on a V/V basis. The inoculated flasks were sealed air-tight and were incubated on a rotary shaker of orbital radius 2.5 cm. at 250 rpm and at 30° C. for two days until turbidity in the medium had developed. The cells were harvested by centrifugation at 10,000×g. at 4° C. for 30 minutes. The cell pellet was washed twice with a 0.05 M phosphate buffer at a pH of 7.0 (containing 0.02 M MgCl2). The washed cells were then suspended in a 0.05 M phosphate buffer at pH 7.0.
(§2) A 0.5 ml. sample of each washed cell suspension (2 mg. cells) was put into 10 ml. vials at 4° C. which were sealed with a rubber cap. The gaseous phase of the vials was removed with vacuum and then was replaced with a gas mixture of the substrate reactant (i.e., alkane or secondary alcohol) and oxygen at a 1:1 V/V ratio. (In the case of a liquid substrate, i.e., secondary alcohol, 10 μl of the substrate was put in the 10 ml. vials). […] Samples of product (1-3 μl) were withdrawn periodically with a microsyringe and the products were analyzed by gas chromatography (ionization flame detector column).
(§3) The procedure in Example 1 was repeated wherein a plurality of the methane-utilizing methylotrophic microorganisms were each grown aerobically in a nutrient medium containing methane as the alcohol dehydrogenase enzyme inducer and as the major carbon and energy source for growth. The cells were harvested and washed as described in Example 1. The resting microbial cells of the induced methane-grown methane-utilizing methylotrophic microorganisms were then contacted with C3 -C6 secondary alcohols in a buffered solution by the procedure of Example 1.
(§4) In this example, the procedure in Example 1 was repeated except that a plurality of methane-utilizing methylotrophic microorganisms were each aerobically grown in a methanol-containing nutrient medium instead of a methane-containing medium. The nutrients in the medium were the same as indicated in Example 1 except that 0.4% V/V methanol was used as the alcohol dehydrogenase inducer and major source of carbon and energy for growth. Following growth, the cells were harvested and washed as described in Example 1. The resting cells of the induced methanol-grown methylotrophic microorganisms were then contacted with secondary alcohols in a buffered solution by the procedure described in Example 1.

[2] = tested on: Methylococcus capsulatus, Texas (ATCC 19069); assay: as above; assay type: cell-based
Protocol: as §1, §2, §3, §4

[3] = tested on: Methylomonas albus BG8 (NRRL B-11,200); assay: as above; assay type: cell-based
Protocol: as §1, §2, §3, §4

[4] = tested on: Methylosinus sporium 5 (NRRL B-11,197); assay: as above; assay type: cell-based
Protocol: as §1, §2, §3, §4

[5] = tested on: Hansenula polymorpha ATCC 26012; assay: Oxidation of sec-alcohols to ketones by cell suspensions of yeasts; assay type: cell-based
[6] = tested on: cell extracts of Candida utilis ATCC 26,387; assay: NAD+-dependent oxidation of secondary alcohols by cell extracts of yeasts; assay type: biochemical; details: for Conversion Rate, secondary alcohol to methylketone: cell extracts, grown on methanol, NAD+, gas chromatography
[7] = tested on: cell extracts of Pichia sp. NRRL Y-11,328; assay: as above; assay type: biochemical; details: grown on methanol, gas chromatography
[8] = tested on: cell extracts of Kloeckera sp. strain A2 NRRL Y-11,420; assay: as above; assay type: biochemical; details: for Conversion Rate, secondary alcohol to methylketone: cell extracts, grown on methanol, NAD+, gas chromatography
[9] = spectrophotometric, 2-butanol as substrate

| Structure (SMILES) | Conversion Rates, sec-alcohol to methyl ketone ([1]; cells grown on methanol) [μmoles/hr/mg protein] | Conversion Rates, sec-alcohol to methyl ketone ([1]; resting cells grown on methane) [μmoles/hr/mg protein] | Conversion Rates, sec-alcohol to methyl ketone ([2]; cells grown on methanol) [μmoles/hr/mg protein] | Conversion Rates, sec-alcohol to methyl ketone ([2]; resting cells grown on methane) [μmoles/hr/mg protein] | Conversion Rates, sec-alcohol to methyl ketone ([3]; cells grown on methanol) [μmoles/hr/mg protein] | Conversion Rates, sec-alcohol to methyl ketone ([3]; resting cells grown on methane) [μmoles/hr/mg protein] | Conversion Rates, sec-alcohol to methyl ketone ([4]; cells grown on methanol) [μmoles/hr/mg protein] | Conversion Rates, sec-alcohol to methyl ketone ([4]; resting cells grown on methane) [μmoles/hr/mg protein] | Conversion Rate, sec-alcohol to ketone ([5]; growth substrate Ethanol) | Conversion Rate, sec-alcohol to ketone ([5]; growth substrate Methanol) | Conversion Rate, sec-alcohol to ketone ([5]; growth substrate Methylamine) | Conversion Rate, sec-alcohol to ketone ([5]; growth substrate Methylformate) | Conversion Rate, sec-alcohol to ketone ([5]; growth substrate Propylamine) | Conversion Rate, secondary alcohol to methylketone [6] [μmoles/hr/mg Protein] | specific activities [6, 9] | Conversion Rate, secondary alcohol to methylketone [7] [μmoles/hr/mg Protein] | Conversion Rate, secondary alcohol to methylketone [8] [μmoles/hr/mg Protein] | specific activities [8, 9] |
| --- | --- | --- | --- | --- | --- | --- | --- | --- | --- | --- | --- | --- | --- | --- | --- | --- | --- | --- |
| CCC(C)O (stereo not shown) [2-Butanol, 2-butanol] | 1.5 | 0.84 | 0.70 | 0.60 | 3.0 | 3.5 | 3.5 | 3.0 | 4.8 μmoles/hr/mg of protein | 5.8 μmoles/hr/mg of protein | 4.5 μmoles/hr/mg of protein | 5.2 μmoles/hr/mg of protein | 4.0 μmoles/hr/mg of protein | 4.92 | 78 nmoles NAD^+ reduced per min. per mg. protein | 6.2 | 5.9 | 90 nmoles NAD^+ reduced per min. per mg. protein |
| CCCCC(C)O (stereo not shown) [2-Hexanol, 2-hexanol] | 0.12 | 0.1 | 1.3 | 1.0 |  |  |  |  | 0.54 μmoles/hr/mg of protein | 0.72 μmoles/hr/mg of protein | 0.62 μmoles/hr/mg of protein | 0.70 μmoles/hr/mg of protein | 0.48 μmoles/hr/mg of protein | 0.45 |  | 0.60 | 0.25 |  |
| CCCC(C)O (stereo not shown) [2-Pentanol, 2-pentanol] | 0.60 | 0.5 | 3.5 | 2.5 |  |  |  |  | 1.1 μmoles/hr/mg of protein | 1.4 μmoles/hr/mg of protein | 1.2 μmoles/hr/mg of protein | 1.3 μmoles/hr/mg of protein | 0.82 μmoles/hr/mg of protein | 0.82 |  | 1.2 | 1.2 |  |
| CC(C)O [2-Propanol, 2-propanol] | 0.52 | 0.15 | 0.75 | 0.08 | 1.5 | 1.3 | 0.45 | 0.30 | 5.0 μmoles/hr/mg of protein | 5.9 μmoles/hr/mg of protein | 5.2 μmoles/hr/mg of protein | 5.6 μmoles/hr/mg of protein | 4.1 μmoles/hr/mg of protein | 4.5 |  | 5.5 | 4.8 |  |
